Laboratory results: patent US10364277B2, “Diagnosis and treatment of autoimmune diseases” (NewSouth Innovations Pty Limited, priority 2013, dated 2019)
Entries after “also recorded” stand apart in the source; their conditions may differ. Marks after values point to notes of the source that are not given here. Ends that are not written are not given here.

Key:
PBMC = experiment: Ex vivo IFN-γ EliSpot assay; settings: for IFN-γ response to individual peptide compared to the controls: one HLA B27 subject of 2 (B27004, B27007), p<0.001
HLAB*2705 = HLAB*2705 (Homo sapiens, UniProt P01889, D138H/D201E/E176V/E204Q/G107R/H137Y/K202T/N104T/N87E/Q56L/Q94K/R106L/R155S/R180L/S101D/S121N/S48T/Y140D/Y33H/Y91C); experiment: REVEAL MHC-peptide binding assay; settings: for % Positive Control: REVEAL binding score relative to positive control peptide, pass threshold ≥45%
[1] = tested on: T cells of patients with AS; settings: known from Kuon et al. 1997; cited from earlier work
Lewis rats = experiment: Immunization of Lewis rats with peptide in CFA (uveitis/arthritis); type: in vivo, rat; parameters: histol Average / Arthritis Total: scale not given here; settings: for Arthritis Total / Arthritis day 25 / incidence / histol Average: 50 μg peptide/animal; for clin uveitis: 6 Lewis rats, 50 μg peptide/animal s.c. in CFA; for incidence: eyes with histological findings / eyes scored; for animals immunised that developed arthritis: groups of 6 animals, not HLA-B27 transgenics; for histol Average: histological uveitis score of eyes
Protocol: Animals: Lewis rats, age 6 weeks,
Peptides were emulsified (sonification) in CFA (50:50, CFA:Peptid) supplemented with M Tuberculosis H37RA (BD, Heidelberg, Germany) to a final concentration of 2.5 mg/ml
Peptide is injected s.c. in both hindlegs, 50 μg peptide/200 μl emulsion, 100 μl/leg,
Group size: 6 animals, 3 groups
7 days post immunization animals were examined daily (eyes and feet)
Eyes were embedded in tissue tec and frozen at −80 degree.
8 μm cryo section were stained with hematoxilin and graded.

Rats = experiment: Induction of oral tolerance in rats; type: in vivo, rat; settings: for affected joints / average score/animal / incidence: 4 rats
[2] = PBS-fed 3 x, immunized with 100 μg peptide
[3] = fed 200 μg peptide 3 x, immunized with 100 μg of the same peptide

## LQNNLIETI (Fragment of keratocan protein)
PBMC
  IFN-γ response to individual peptide compared to the controls: significant increase in response

## KRLAETLAL [compound 1, KRLAETLAL]
HLAB*2705
  % Positive Control: 105.51%

## 9 (SRHHAFCFR; Aggrecan peptide fragment) [Peptide 9]
[1]
  stimulation of T cells of patients with AS: stimulate T cells of patients with AS
HLAB*2705
  % Positive Control: 0.02%

## QLEDIRLDG (A second opticin protein fragment)
PBMC
  IFN-γ response to individual peptide compared to the controls: significant increase in response

## LQYLRLSHN
PBMC
  IFN-γ response to individual peptide compared to the controls: significant increase in response

## 8 (DRASFIKNL; Collagen peptide fragment) [Peptide 8]
[1]
  stimulation of T cells of patients with AS: stimulate T cells of patients with AS
HLAB*2705
  % Positive Control: 0.04%

## ARKLLLDNL [Peptide P2]
Lewis rats
  Arthritis Total: 8
  clin uveitis: 0
  Arthritis day 25: 8
  incidence: 5/11*
  animals immunised that developed arthritis: 5/6
  histol Average: 0.181
HLAB*2705
  % Positive Control: 5.26%
Rats; [2]
  affected joints: 3
  average score/animal: 1.875
  incidence: 2/4
Rats; [3]
  average score/animal: 3.25
  incidence: 1/4
Rats; left eye of rat 1-3, PBS-fed, imm. P2D6
  histological score: 2-3

## KRFNALQYL [human lumican residues 226-234]
Lewis rats
  Arthritis Total: 3
  clin uveitis: 0
  Arthritis day 25: 0
  incidence: 3/12
  histol Average: 0.125
HLAB*2705
  % Positive Control: 0.24%
HLAB*2705; in vitro MHC-peptide binding assay, HLA-B2705
  binding relative to the positive control peptides: significant binding

## 10 (ARGQPGVMG) [Peptide 10]
HLAB*2705
  % Positive Control: 1.06%

## NRFSVAYML [Peptide P3]
Lewis rats
  Arthritis Total: 4
  clin uveitis: 0
  Arthritis day 25: 2
  incidence: 2/12
  histol Average: 0.083
HLAB*2705
  % Positive Control: 0.00%
Rats; [2]
  affected joints: 10
  average score/animal: 2.75-3.00
  incidence: 3/4
Rats; compared with P2
  induction of oral tolerance: induces oral tolerance more effectively than P2
Rats; [3]
  affected joints: 0
  average score/animal: 0
  incidence: 0/4
Rats; rats fed with P3 and immunized with P3
  development of arthritis or uveitis: None of the rats fed with P3 and immunized with P3 developed arthritis or uveitis; also recorded: None of the animals who received P3 had evidence of arthritis or uveitis

B1: Lumican: whole recombinant human lumican (protein, UniProt P51884 19-338, looked up)
Lumican: QYYDYDFPLSIYGQSSPNCAPECNCPESYPSAMYCDELKLKSVPMVPPGIKYLYLRNNQIDHIDEKAFENVTDLQWLILDHNLLENSKIKGRVFSKLKQLKKLHINHNNLTESVGPLPKSLEDLQLTHNKITKLGSFEGLVNLTFIHLQHNRLKEDAVSAAFKGLKSLEYLDLSFNQIARLPSGLPVSLLTLYLDNNKISNIPDEYFKRFNALQYLRLSHNELADSGIPGNSFNVSSLVELDLSYNKLKNIPTVNENLENYYLEVNQLEKFDIKSFCKILGPLSYSKIKHLRLDGNRISETSLPPDMYECLRVANEVTLN
PBMC; HLA B27 AU patients
  patients demonstrating increased IFN-γ production: 8 of 10
PBMC; number of HLA B27 AU patients responding, PBMC, 24 hours
  Interferon gamma response, Patients (N = 10): 8
PBMC; number of healthy controls responding, PBMC, 24 hours
  Interferon gamma response, Controls (N-6): 2
PBMC; ten patients vs controls n=6, one way ANOVA, Bonferroni, lumican 2.5 μg/mL
  IFN-γ response of HLA B27 AU patients vs average of healthy controls: significant difference
Lewis rats
  animals immunised that developed arthritis: all developed arthritis
